Like-named read-outs stand apart in the source and are kept apart here.
Assays:
[1] = molecular target: HRAS wild-type protein (Homo sapiens, UniProt P01112); experiment: Binding to HRAS by surface plasmon resonance (SPR), KD and KD ratio to KRAS
In short: (§1)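 Each cycle, GDP-bound biotin-Avi RAS was captured (~100–300 RU), compound concentrations were injected low to high for 75 s each at 100 µL/min, then the chip was regenerated. Buffer: HBS pH 7.4, 10 mM MgCl2, 10 µM GDP, 1 mM DTT, 4% DMSO; 30°C. KD from a 1:1 binding model.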

[2] = molecular target: GDP-bound NRAS wild-type protein (Homo sapiens, UniProt P01111); experiment: Binding to NRAS by surface plasmon resonance (SPR), KD and KD ratio to KRAS
Sequence of GDP-bound NRAS wild-type protein (P01111 whole entry): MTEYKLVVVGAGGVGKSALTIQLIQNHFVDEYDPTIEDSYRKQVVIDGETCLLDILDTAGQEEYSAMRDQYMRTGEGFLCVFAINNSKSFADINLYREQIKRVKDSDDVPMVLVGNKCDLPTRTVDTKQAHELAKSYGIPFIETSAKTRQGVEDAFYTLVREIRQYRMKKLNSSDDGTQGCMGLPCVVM
In short: as §1

[3] = molecular target: GDP-bound KRAS wild-type protein (Homo sapiens, UniProt P01116); experiment: Binding to KRAS by surface plasmon resonance (SPR), dissociation constant KD
Sequence of GDP-bound KRAS wild-type protein (P01116 1-188 isoform P01116-2): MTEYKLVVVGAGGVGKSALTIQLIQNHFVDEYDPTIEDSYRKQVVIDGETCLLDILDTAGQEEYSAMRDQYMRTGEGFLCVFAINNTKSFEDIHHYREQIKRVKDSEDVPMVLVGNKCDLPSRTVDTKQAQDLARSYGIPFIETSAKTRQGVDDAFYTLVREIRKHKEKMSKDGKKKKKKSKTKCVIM
In short: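 GDP-loaded biotinylated Avi-tag RAS proteins (E. coli-expressed) captured on a Biotin CAPture chip at ~100–300 RU; single-cycle kinetics at 30°C, 100 µL/min, 75 s injections of rising compound concentrations. HBS pH 7.4 running buffer with 1 mM DTT, 10 mM MgCl2, 10 µM GDP, 4% DMSO. KD from 1:1 binding fit.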

[4] = system: human lung cancer strain NCI-H441; experiment: NCI-H441 cell proliferation inhibitory activity (CellTiter-Glo, 4 days); type: cell-based; conditions: read-out: NCl-H441 IC50
In short: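 Signal came from […] measured per well once the reagent was added. Beforehand, cells were cultured at 37°C and 5% carbon dioxide on a compound series serially diluted in dimethyl sulfoxide.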

[5] = ratio of KD for HRAS wild-type protein to KD for KRAS
[6] = ratio of KD for GDP-bound NRAS wild-type protein to KD for KRAS
[7] = ratio of KD with respect to HRAS wild-type protein to KD with respect to KRAS
[8] = ratio of KD with respect to GDP-bound NRAS wild-type protein to KD with respect to KRAS
[9] = Single Cycle Kinetics, 1:1 binding model
[10] = 50% proliferation inhibitory concentration, four days

Sequence of HRAS wild-type protein (P01112 whole entry): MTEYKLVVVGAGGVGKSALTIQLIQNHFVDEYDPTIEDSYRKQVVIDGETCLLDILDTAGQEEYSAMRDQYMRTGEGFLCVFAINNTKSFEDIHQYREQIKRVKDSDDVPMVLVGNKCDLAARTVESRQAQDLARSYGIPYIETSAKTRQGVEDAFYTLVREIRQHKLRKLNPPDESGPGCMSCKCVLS

SMILES | HRAS /KRAS [1, 5] | NRAS /KRAS [2, 6] | Kd ([3]; Single Cycle Kinetics) [nM] | IC50 ([4]; NCI-H441 cells, 4 days) [nM] | Kd ([3]; 1:1 binding model) [nM] | HRAS /KRAS [1, 7] | NRAS /KRAS [2, 8] | Kd [3, 9] [nM] | IC50 [4, 10] [nM]
CCC[C@H]1C(=O)N[C@@H]([C@@H](C)CC)C(=O)N(C)CC(=O)N(C)[C@H]2C/C=C\CCN(C2=O)[C@@H](Cc2ccc(C)cc2)C(=O)N(C)CC(=O)N[C@@H](CCc2cc(F)c(C(F)(F)F)c(F)c2)C(=O)N2CC[C@H](OC)[C@H]2C(=O)N(C)C2(CCC2)C(=O)N(C)[C@@H](C2CCCC2)C(=O)N(C)[C@H](C(=O)N(C)C)CC(=O)N1C [PP3287] | B (a compound having 3 or more and less than 10 is denoted as B) | A (a compound having 10 or more and less than 20 is denoted as A) | 0.057 | 5.4 | – | – | – | – | –
CCO[C@@H]1C[C@H]2C(=O)NC3(CC(C)(C)C3)C(=O)N(C)[C@@H](C3CCCC3)C(=O)N(C)[C@H](C(=O)N(C)C)CC(=O)N(C)[C@@H](CC(C)C)C(=O)N[C@@H]([C@@H](C)CC)C(=O)N(C)CC(=O)N(C)[C@H]3C/C(F)=C\CCN(C3=O)[C@@H](Cc3ccc(C)cc3)C(=O)N(C)CC(=O)N[C@@H](CCc3cc(F)c(C(F)(F)F)c(F)c3)C(=O)N2C1 [PP3513] | B (a compound having 3 or more and less than 10 is denoted as B) | B (a compound having 3 or more and less than 10 is denoted as B) | 0.14 | 8.6 | – | – | – | – | –
CCCO[C@@H]1C[C@H]2C(=O)NC3(CC(C)(C)C3)C(=O)N(C)[C@@H](C3CCCC3)C(=O)N(C)[C@H](C(=O)N(C)CC)CC(=O)N(C)[C@@H](COCC)C(=O)N[C@@H]([C@@H](C)CC)C(=O)N3C[C@@H](F)C[C@H]3C(=O)N(C)[C@H]3C/C=C\CCN(C3=O)[C@@H](Cc3ccc(C(F)(F)F)cc3)C(=O)N(C)CC(=O)N[C@@H](CCc3cc(F)c(C(F)(F)F)c(F)c3)C(=O)N2C1 [PP3401] | A (a compound having 10 or more and less than 20 is denoted as A) | A (a compound having 10 or more and less than 20 is denoted as A) | 0.32 | 10.9 | – | – | – | – | –
CCC[C@H]1C(=O)N[C@@H]([C@@H](C)CC)C(=O)N(C)CC(=O)N(C)[C@H]2C/C(F)=C\CCN(C2=O)[C@@H](Cc2ccc(C)cc2)C(=O)N(C)CC(=O)N[C@@H](CCc2cc(F)c(C(F)(F)F)c(F)c2)C(=O)N2C[C@H](OCC)C[C@H]2C(=O)N(C)C2(CCC2)C(=O)N(C)[C@@H](C2CCCC2)C(=O)N(C)[C@H](C(=O)N(C)C)CC(=O)N1C [PP3528] | B (a compound having 3 or more and less than 10 is denoted as B) | B (a compound having 3 or more and less than 10 is denoted as B) | 0.062 | 3.7 | – | – | – | – | –
CCC(CC)[C@H]1C(=O)N(C)[C@H](C(=O)N2CCCCC2)CC(=O)N(C)[C@@H](COC)C(=O)N[C@@H]([C@@H](C)CC)C(=O)N(C)CC(=O)N(C)[C@H]2C/C=C\CCN(C2=O)[C@@H](Cc2ccc(C(F)(F)F)cc2)C(=O)N(C)CC(=O)N[C@@H](CCc2cc(F)c(C(F)(F)F)c(F)c2)C(=O)N2C[C@H](OC(C)C)C[C@H]2C(=O)NC2(CC(C)(C)C2)C(=O)N1C [PP2608] | A (a compound having 10 or more and less than 20 is denoted as A) | AA (a compound having 20 or more is denoted as AA) | – | 53 | 1.4 | – | – | – | –
CCO[C@@H]1C[C@H]2C(=O)NC3(CC(C)(C)C3)C(=O)N(C)[C@@H](C3CCCC3)C(=O)N(C)[C@H](C(=O)N(C)C)CC(=O)N[C@@H](CC(C)C)C(=O)N[C@@H]([C@@H](C)CC)C(=O)N(C)CC(=O)N(C)[C@H]3C/C=C\CCN(C3=O)[C@@H](Cc3ccc(C(F)(F)F)cc3)C(=O)N(C)CC(=O)N[C@@H](CCc3ccc(C(F)(F)F)c(OC)c3)C(=O)N2C1 [PP3445] | A (a compound having 10 or more and less than 20 is denoted as A) | A (a compound having 10 or more and less than 20 is denoted as A) | 0.13 | 20.2 | – | – | – | – | –
C=CC[C@H]1C(=O)N(C)[C@H](C(=O)N(C)C)CC(=O)N(C)[C@@H](CCC)C(=O)N[C@@H]([C@@H](C)CC)C(=O)N2CCC[C@H]2C(=O)N(C)[C@H]2C/C=C\CCN(C2=O)[C@@H](Cc2ccc(C(F)(F)F)cc2)C(=O)N(C)CC(=O)N[C@@H](CCc2cc(F)c(C(F)(F)F)c(F)c2)C(=O)N2C[C@H](OCC)C[C@H]2C(=O)N(C)C2(CCC2)C(=O)N1C [PP3338] | A (a compound having 10 or more and less than 20 is denoted as A) | A (a compound having 10 or more and less than 20 is denoted as A) | 4.6 | 104 | – | – | – | – | –
CCC[C@H]1C(=O)N[C@@H]([C@@H](C)CC)C(=O)N(C)CC(=O)N(C)[C@H]2C/C=C\CCN(C2=O)[C@@H](Cc2ccc(C(F)(F)F)cc2)C(=O)N(C)CC(=O)N[C@@H](CCc2cc(F)c(C(F)(F)F)c(F)c2)C(=O)N2CC3(CC3)C[C@H]2C(=O)NC2(CCC2)C(=O)N(C)[C@@H](CC(C)(C)C)C(=O)N(C)[C@H](C(=O)N(C)C)CC(=O)N1C [PP3406] | B (a compound having 3 or more and less than 10 is denoted as B) | A (a compound having 10 or more and less than 20 is denoted as A) | 0.035 | 5.7 | – | – | – | – | –
CCOC[C@H]1C(=O)N[C@@H]([C@@H](C)CC)C(=O)N(C2CC2)CC(=O)N(C)[C@H]2C/C=C\CCN(C2=O)[C@@H](Cc2ccc(C)cc2)C(=O)N(C)CC(=O)N[C@@H](CCc2ccc(Cl)c(Cl)c2)C(=O)N2C[C@H](OCC)C[C@H]2C(=O)NC2(CC(C)(C)C2)C(=O)N(C)[C@@H](CC2CCC2)C(=O)N(C)[C@H](C(=O)N(C)C)CC(=O)N1C [PP2762] | A (a compound having 10 or more and less than 20 is denoted as A) | A (a compound having 10 or more and less than 20 is denoted as A) | – | 122 | 2.9 | – | – | – | –
CCO[C@@H]1C[C@H]2C(=O)NC3(CCC3)C(=O)N(C)[C@@H](C3CCCC3)C(=O)N(C)[C@H](C(=O)N(C)C)CC(=O)N(C)[C@@H](CC3CC3)C(=O)N[C@@H]([C@@H](C)CC)C(=O)N(C)CC(=O)N(C)[C@H]3C/C=C\CCN(C3=O)[C@@H](CC3CCCCC3)C(=O)N(C)CC(=O)N[C@@H](CCc3cc(F)c(C(F)(F)F)c(F)c3)C(=O)N2C1 [PP1446] | – | – | – | – | – | A (a compound having 10 or more and less than 20 is denoted as A) | A (a compound having 10 or more and less than 20 is denoted as A) | 0.2 | 32
CCCN(C)C(=O)[C@@H]1CC(=O)N(C)[C@@H](CC(C)C)C(=O)N[C@@H]([C@@H](C)CC)C(=O)N(C)CC(=O)N(C)[C@H]2C/C=C\CCN(C2=O)[C@@H](Cc2ccc(C(F)(F)F)cc2)C(=O)N(C)CC(=O)N[C@@H](CCc2cc(F)c(C(F)(F)F)c(F)c2)C(=O)N2C[C@H](OCC)C[C@H]2C(=O)N[C@]2(C[C@@H](OC)C2)C(=O)N(C)[C@@H](C2CCCC2)C(=O)N1C [PP3352] | B (a compound having 3 or more and less than 10 is denoted as B) | A (a compound having 10 or more and less than 20 is denoted as A) | 0.28 | 12.4 | – | – | – | – | –
CCC[C@H]1C(=O)N[C@@H]([C@@H](C)CC)C(=O)N(C)CC(=O)N(C)[C@H]2C/C=C\CCN(C2=O)[C@@H](Cc2ccc(C)cc2)C(=O)N(C)CC(=O)N[C@@H](CCc2ccc(Cl)c(Cl)c2)C(=O)N2C[C@H](OCC)C[C@H]2C(=O)NC2(CC(C)(C)C2)C(=O)N(C)[C@@H](CC(C)(C)C)C(=O)N(C)[C@H](C(=O)N(C)C)CC(=O)N1C [PP2714] | A (a compound having 10 or more and less than 20 is denoted as A) | A (a compound having 10 or more and less than 20 is denoted as A) | – | 13.2 | 0.25 | – | – | – | –
CCO[C@@H]1C[C@H]2C(=O)NC3(CC(C)(C)C3)C(=O)N(C)[C@@H](C3CCCC3)C(=O)N(C)[C@H](C(=O)N(C)C)CC(=O)N(C)[C@@H]([C@H](C)OC)C(=O)N[C@@H]([C@@H](C)CC)C(=O)N(C3CC3)CC(=O)N(C)[C@H]3C/C=C\CCN(C3=O)[C@@H](Cc3ccc(C(F)(F)F)cc3)C(=O)N(C)CC(=O)N[C@@H](CCc3cc(F)c(C(F)(F)F)c(F)c3)C(=O)N2C1 [PP3175] | A (a compound having 10 or more and less than 20 is denoted as A) | A (a compound having 10 or more and less than 20 is denoted as A) | 0.31 | 15.3 | – | – | – | – | –
CC[C@H](C)[C@@H]1NC(=O)[C@H](CC)N(C)C(=O)C[C@@H](C(=O)N(C)C)N(C)C(=O)[C@H](C2CCCC2)N(C)C(=O)C2(CCC2)NC(=O)[C@@H]2C[C@@H](C(F)(F)F)CN2C(=O)[C@H](CCc2cc(F)c(C(F)(F)F)c(F)c2)NC(=O)CN(C)C(=O)[C@H](Cc2ccc(C(F)(F)F)cc2)N2CC/C=C\C[C@@H](C2=O)N(C)C(=O)CN(C)C1=O [PP1133] | – | – | – | – | – | A (a compound having 10 or more and less than 20 is denoted as A) | A (a compound having 10 or more and less than 20 is denoted as A) | 0.05 | 16.5
CCOC[C@H]1C(=O)N[C@@H]([C@@H](C)CC)C(=O)N(C)CC(=O)N(C)[C@H]2C/C=C\CCN(C2=O)[C@@H](CC2CCCCC2)C(=O)N(C)CC(=O)N[C@@H](CCc2ccc(C(F)(F)F)c(OC)c2)C(=O)N2C[C@H](OCC)C[C@H]2C(=O)NC2(CC(C)(C)C2)C(=O)N(C)[C@@H](C(CC)CC)C(=O)N(C)[C@H](C(=O)N(C)C)CC(=O)N1C [PP2470] | A (a compound having 10 or more and less than 20 is denoted as A) | A (a compound having 10 or more and less than 20 is denoted as A) | – | 118 | 1.8 | – | – | – | –

— patent EP4603105A1, “PHARMACEUTICAL COMPOSITION CONTAINING CYCLIC COMPOUND HAVING SELECTIVE KRAS INHIBITORY EFFECT AGAINST HRAS AND NRAS” (CHUGAI SEIYAKU KABUSHIKI KAISHA, priority 2022, dated 2024)
